Assay results published in patent US20250213519A1, “SYNERGY FOR INCREASING INSULIN SENSITIVITY” (Board of Supervisors of Louisiana State University and …, priority 2022, published 2025).
“Also recorded” adds a separate entry of the source.

What was measured:
human adipocytes [1] = experiment: Lipolysis assay (agonist-stimulated glycerol release); assay type: cell-based; settings: agonist exposure 4.5 hours, white and NRBC-treated adipocytes
Procedure: Thermogenesis is fueled by lipolysis, so we determined whether agonist-stimulated glycerol release, a measure of lipolysis, reflected the increases in receptors and lipolysis machinery in NRBC-treated adipocytes. First, adipocyte cultures from four donors who had obesity were treated with cell medium (untreated control cells) or NRBC for seven days. On the day of the acute lipolysis assay, cells were exposed to the individual receptor agonists for […] in buffer and glycerol released into the cell supernatant was measured. Non-hydrolyzable 8-cpt-cAMP, a potent activator of PKA signaling, was also evaluated in each experiment as a positive control since it bypasses individual receptors and measures the maximum capacity for lipolysis (36). The βARs, PTHR, MC1R, GPER and ADORA2B are all stimulatory G-protein (Gs) coupled receptors and signal through the CAMP-PKA signal transduction mechanism. NPR1 is not a Gs-coupled receptor and signals through an alternate mechanism of guanylate cyclase-cGMP-protein kinase G (PKG).
Cells were differentiated in 96-well plates and treated with cell medium (untreated) or NRBC for seven days. On the day of the lipolysis assay, cells were exposed for 4.5 hours to buffer (KRB with 1% BSA) or receptor agonists dissolved in buffer. Agonists were used at concentrations shown to give maximum responses and were: 8-Cpt-cAMP 200 μM non-hydrolyzable PKA activator of maximum stimulated lipolysis (cAMP) (36), atrial natriuretic peptide 0.1 μM for NPR1 and NPR3(37), parathyroid hormone (amino acids 1-34) 1 μM for PTHR(38), isoproterenol 1 μM all βARs and dobutamine 1 μM for β1AR (39), estradiol 1 μM for GPER (40), growth hormone 250 ng/ml for GHR (41), adrenocorticotropin hormone 1 μM for MC1R (42), bile acid chenodeoxycholic acid 30 μM for TGR5(43), adenosine 1 μM for ADORA1 and ADORA2B (44), and menthol 100 μM for TRPM8(45). Supernatants were removed for measurement of glycerol released using Glycerol Reagent A, and concentrations were determined using a standard curve. Data are from four or five experiments each with cells from different donors with BMI from 27 to 36.

CDK5 = CDK5 (Homo sapiens, UniProt Q00535); settings: cited from earlier work
Sequence of CDK5 (Q00535 whole entry, species assumed): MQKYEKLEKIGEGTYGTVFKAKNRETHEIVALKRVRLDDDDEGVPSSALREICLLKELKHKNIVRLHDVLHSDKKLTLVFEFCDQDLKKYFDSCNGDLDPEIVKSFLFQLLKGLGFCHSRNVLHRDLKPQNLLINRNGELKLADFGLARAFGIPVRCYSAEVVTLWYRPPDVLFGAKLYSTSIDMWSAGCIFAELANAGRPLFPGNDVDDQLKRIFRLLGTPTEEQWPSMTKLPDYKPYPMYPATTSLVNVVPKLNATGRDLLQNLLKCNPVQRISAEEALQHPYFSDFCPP
Sequence of CDK5 (Q15078 whole entry partner, species assumed): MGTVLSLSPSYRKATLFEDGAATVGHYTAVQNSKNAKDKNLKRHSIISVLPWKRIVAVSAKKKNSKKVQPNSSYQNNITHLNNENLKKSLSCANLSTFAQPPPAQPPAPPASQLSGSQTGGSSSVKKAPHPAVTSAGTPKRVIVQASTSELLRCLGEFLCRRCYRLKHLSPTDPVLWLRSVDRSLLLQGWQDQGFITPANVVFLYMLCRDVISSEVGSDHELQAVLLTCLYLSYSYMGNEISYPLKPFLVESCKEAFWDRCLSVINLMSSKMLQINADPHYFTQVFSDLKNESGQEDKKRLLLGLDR

human adipocytes [2] = experiment: mRNA levels (qRT-PCR) in human adipocyte cultures treated for seven days; assay type: cell-based; settings: for UCP1 gene expression, carotenoid combined with NR: 2 μM carotenoid + 8 μM NR, seven days, vs NR alone; for gene expression, β-carotene added to naringenin: 2 μM β-carotene + 8 μM naringenin extract, 7 days
Source text: In adipocytes, CDK5 inhibitors reduce adipogenesis and increase genes for energy expenditure by altering PPARγ target gene selection. We measured the expression of the PPARα/γ direct target gene UCP1 after treating human adipocyte cultures with CDK5-inhibiting flavonols combined with naringenin for seven days.
Human adipose-derived stem cells from overweight and obese female donors were purchased from LaCell, LLC (New Orleans, Louisiana) or isolated from lipoaspirate waste donated post-surgery from women with obesity using methods as previously described (31). Cells were seeded, maintained until two days after becoming confluent, and differentiated into adipocytes in the presence of rosiglitazone and isobutylmethylxanthine for five days as previously described (25). […], dissolved in DMSO at 1000×, started 5 days after the differentiation period and lasted for seven days in adipocyte maintenance medium with heat inactivated serum, before RNA and protein were isolated from adipocyte cultures.
Quantitative reverse transcriptase and real-time PCR were conducted in one reaction with the gene-specific reverse PCR primer also priming the cDNA synthesis as previously described (25). Primer-probe sequences for UCP1, GLUT4, ATGL, adiponectin, PGC-1α and ribosomal RPL13A, used to adjust target gene values for total RNA in each sample, have been previously reported (25). […] Predesigned human primer and probe sets from Thermofisher Scientific are PM20D1 Hs00399438_m1; ANGPTL4 Hs00211522_m1; GDF11 Hs00195156_m1; S100B Hs00902901_m1.

human adipocytes [3] = experiment: as above; assay type: cell-based; settings: for gene expression, carotenoid alone: 2 μM carotenoid individually, seven days
human adipocytes [4] = experiment: Protein levels by Western blotting in human adipocytes treated for seven days; assay type: cell-based; settings: 8 μM NR or 50 nM myricetin, 7 days
Source text: Since we saw an increase in SIRT3 mRNA and myricetin upregulates SIRT3 protein in adipocytes from mice, we analyzed levels of SIRT3 protein in human adipocytes treated for seven days with the same concentrations of compounds. Protein was isolated from adipocytes and analyzed on immunoblots probed with antibodies that specifically bind human SIRT3 or human β-actin. […] However, adding myr to NR+BC boosted SIRT3 protein by 37%.
Human adipose-derived stem cells from overweight and obese female donors were purchased from LaCell, LLC (New Orleans, Louisiana) or isolated from lipoaspirate waste donated post-surgery from women with obesity using methods as previously described (31). Cells were seeded, maintained until two days after becoming confluent, and differentiated into adipocytes in the presence of rosiglitazone and isobutylmethylxanthine for five days as previously described (25). Treatments of adipocytes with 8 μM NR and 2 μM carotenoid, dissolved in DMSO at 1000×, started 5 days after the differentiation period and lasted for seven days in adipocyte maintenance medium with heat inactivated serum, before RNA and protein were isolated from adipocyte cultures.
Whole cell protein was isolated from differentiated cell cultures after treatment for seven days, lysed with RIPA buffer containing protease and phosphatase inhibitors, and pushed through a 20-gauge needle four times to disrupt organelles. Fifty micrograms of total cell protein were loaded per lane and resolved in 7.5% SDS-PAGE gels, transferred to nitrocellulose membranes, and probed overnight at 4° C. with specific primary antibodies. Anti-rabbit or -mouse secondary antibodies conjugated to horseradish peroxidase were used for detection of target proteins. Image J was used to quantify protein bands on Western blots. To adjust for variations in total protein loaded in each lane, β-actin was used.

human fat cells = experiment: Oxygen consumption rate of human fat cells; assay type: cell-based
Source text: Referring to FIG. 8, cells consume oxygen while metabolizing fat for thermogenic energy expenditure, and we directly measured oxygen consumption rate.

clinical = settings: human, in vivo, 150 mg
[5] = Case study of naringenin in an individual with obesity and diabetes; assay type: in vivo, human
Procedure: Next, we gave 150 mg of naringenin extract in 500 mg of orange extract three times a day by capsule to a person who was obese and had type 2 diabetes that was only treated with diet. They took the capsule three times a day for 8 weeks without going on a diet or changing their exercise habits. […] For an obesity drug to get approval for weight loss it should cause a loss of 5%, so the results were close to what one can expect for a drug. Their insulin resistance went down by 20% and their metabolic rate went up by 3 percent.
We went back to the person whom we tested at 150 mg three times a day with naringenin, and tested them with 300 mg three times a day. They maintained the loss on the lower dose of naringenin and had also lost further weight, so they were below their natural weight set point.

human adipocytes [6] = experiment: Protein levels by Western blotting in human adipocytes treated for seven days; assay type: cell-based
[7] = 150 mg three times a day, 8 weeks
[8] = 150 mg three times a day, eight weeks

Nc1ncnc2c1ncn2[C@@H]1O[C@H](CO)[C@@H](O)[C@H]1O [adenosine]
lipolysis stimulated by the receptor agonist itself (human adipocytes [1]): no effect

C[C@]12CC[C@@H]3c4ccc(O)cc4CC[C@H]3[C@@H]1CC[C@@H]2O [estrogen, estradiol]
lipolysis stimulated by the receptor agonist itself (human adipocytes [1]): small reduction in lipolysis; also recorded: neither growth hormone nor estrogen stimulated lipolysis

O=c1c(O)c(-c2ccc(O)cc2)oc2cc(O)cc(O)c12 [kaempferol, reference compound]
CDK5 kinase activity inhibition EC50 (in words) (CDK5): low micromolar range
EC50 (CDK5; read-out: CDK5 inhibition EC50): 66 µM

CC1=C[C@H](O)CC(C)(C)[C@H]1/C=C/C(C)=C/C=C/C(C)=C/C=C/C=C(C)/C=C/C=C(C)/C=C/C1=C(C)C[C@@H](O)CC1(C)C [lutein]
UCP1 gene expression, carotenoid combined with NR (human adipocytes [2]): synergistic; also recorded: synergistically enhanced levels of UCP1
gene expression, carotenoid alone (human adipocytes [3]): no effect on gene expression

CC(C)=CCC/C(C)=C/C=C/C(C)=C/C=C/C(C)=C/C=C/C=C(C)/C=C/C=C(C)/C=C/C=C(\C)CCC=C(C)C [lycopene]
UCP1 gene expression, carotenoid combined with NR (human adipocytes [2]): did not alter NR-stimulated UCP1 levels
UCP1 gene expression, carotenoid combined with NR (human adipocytes [2]; listed as Lycopene): did not alter the NR response
gene expression, carotenoid alone (human adipocytes [3]): no effect on gene expression

O=C1C[C@@H](c2ccc(O)cc2)Oc2cc(O)cc(O)c21 [naringenin]
UCP1 and GLUT4 mRNA, naringenin concentration curve (human adipocytes [2]; naringenin 0.03 μM to 8 μM with constant 3 μM myricetin): increased gene expression in a concentration-dependent manner
adiponectin production (human adipocytes [2]; naringenin alone (FIG. 9)): increased production of a secreted hormone (adiponectin)
SIRT3 protein levels, single agent (human adipocytes [4]): upregulate SIRT3 protein levels
basal and maximal energy expenditure (oxygen consumption rate) (human fat cells): strong inducer of basal and maximal energy expenditure
Cmax (clinical): ~16 µM
half-life (clinical): 3 h
body weight loss [5, 7]: 2.3%
decrease in insulin resistance [5, 7]: 20%
increase in metabolic rate [5, 7]: 3%
increase in energy expenditure [5, 8]: 3.5%
reduction of fasting insulin concentrations [5, 8]: 20%
body weight at higher dose ([5]; 300 mg three times a day, same person): only maintained their weight loss without adding further weight loss
diabetes status ([5]; after weight loss following the 150 mg dose): resolved their diabetes
UCP-1 expression (human adipocytes [3]; human fat cells in culture and adult adipose specimens, naringenin alone): caused an increase in Uncoupling Protein-1 (UCP-1)
PGC-1α protein levels vs untreated control (human adipocytes [6]; 8 μM NR, 2 μM BC, 7 days): approximately two-fold
protein levels of PPARα, PPARγ, PGC-1α and NAMPT (human adipocytes [6]; NR alone): did not upregulate protein levels
UCP-1 and adiponectin protein levels (human adipocytes [6]; naringenin 8 μM over 7 days (FIG. 10)): protein levels for UCP-1 and adiponectin increased

CC1=C(/C=C/C(C)=C/C=C/C(C)=C/C=C/C=C(C)/C=C/C=C(C)/C=C/C2=C(C)CCCC2(C)C)C(C)(C)CCC1 [β-carotene, β-Carotene]
SIRT3 mRNA expression (human adipocytes [2]; 2 μM BC added to NR+myr, vs NR or NR+myricetin): significantly increased SIRT3 expression
UCP1 gene expression, carotenoid combined with NR (human adipocytes [2]; listed as BC): synergistic; also recorded: synergistically enhanced levels of UCP1
gene expression, β-carotene added to naringenin (human adipocytes [2]): synergistically enhances the effects of naringenin on gene expression; also recorded: synergistically induces gene expression
gene expression, β-carotene added to naringenin (human adipocytes [2]; listed as beta-carotene): synergistically increases expression of genes for thermogenic energy expenditure and insulin sensitivity
gene expression, carotenoid alone (human adipocytes [3]): no effect on gene expression

adrenocorticotropin hormone (SYSMEHFRWGKPVGKKRRPVKVYPNGAEDESAEAFPLEF; Corticotropin; UniProt P01189 138-176, looked up) [ACTH, MC1R agonist used in lipolysis assay]
lipolysis stimulated by the receptor agonist itself (human adipocytes [1]): no effect

growth hormone: human pituitary growth hormone, GHR agonist in lipolysis assay
lipolysis stimulated by the receptor agonist itself (human adipocytes [1]): neither growth hormone nor estrogen stimulated lipolysis

parathyroid hormone (1-34) [PTH]
lipolysis stimulated by the receptor agonist itself (human adipocytes [1]): highest in control white adipocytes
